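Assay format: 96-well plates, 48-hour exposure. GI50 marks 50% less growth.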 Active and inactive are the calls of the source. No stated cut-off is given here; in the data, active = GI50 up to about 1.1 µM and inactive = higher.
Key:
Experiment in all cases: NCI anticancer screen, dose series, 48 h
786-0 = tested on: 786-0
A498 = tested on: A498
A549 = tested on: A549
ACHN = tested on: ACHN
CAKI-1 = tested on: CAKI-1
CCRF-CEM = tested on: CCRF-CEM
COLO 205 = tested on: COLO 205
DLD-1 = tested on: DLD-1
DMS-114 = tested on: DMS-114
DMS-273 = tested on: DMS-273
EKVX = tested on: EKVX
HCC 2998 = tested on: HCC 2998
HCT-116 = tested on: HCT-116
HL-60 = tested on: HL-60
HOP-18 = tested on: HOP-18
HOP-62 = tested on: HOP-62
HOP-92 = tested on: HOP-92
HT-29 = tested on: HT-29
IGROV-1 = tested on: IGROV-1
K562 = tested on: K562
KM-20L2 = tested on: KM-20L2
KM12 = tested on: KM12
LOX IMVI = tested on: LOX IMVI
LXFL 529 = tested on: LXFL 529
M14 = tested on: M14
M19-MEL = tested on: M19-MEL
MOLT-4 = tested on: MOLT-4
Malme-3M = tested on: Malme-3M
NCI-H226 = tested on: NCI-H226
NCI-H23 = tested on: NCI-H23
NCI-H460 = tested on: NCI-H460
NCI-H522 = tested on: NCI-H522
OVCAR-3 = tested on: OVCAR-3
OVCAR-4 = tested on: OVCAR-4
OVCAR-5 = tested on: OVCAR-5
OVCAR-8 = tested on: OVCAR-8
RPMI-8226 = tested on: RPMI-8226
RXF 393 = tested on: RXF 393
SF-268 = tested on: SF-268
SF-295 = tested on: SF-295
SF-539 = tested on: SF-539
SK-MEL-28 = tested on: SK-MEL-28
SK-MEL-2 = tested on: SK-MEL-2
SK-MEL-5 = tested on: SK-MEL-5
SK-OV-3 = tested on: SK-OV-3
SN12C = tested on: SN12C
SNB-19 = tested on: SNB-19
SNB-75 = tested on: SNB-75
SR = tested on: SR
SW-620 = tested on: SW-620
TK-10 = tested on: TK-10
U-251 = tested on: U-251
UACC-257 = tested on: UACC-257
UACC-62 = tested on: UACC-62
UO-31 = tested on: UO-31
HCT-15 = tested on: HCT-15
SNB-78 = tested on: SNB-78

For `Oc1ccc(Br)cc1/C=N/c1ccc(Oc2ccc(/N=C/c3cc(Br)ccc3O)cc2)cc1`, the GI50 (786-0) was > 19.6 µM (inactive), the GI50 (A498) was > 19.6 µM (inactive) and the GI50 (A549) was > 19.6 µM (inactive). For the same compound, the GI50 (ACHN) was > 19.6 µM (inactive), the GI50 (CAKI-1) was > 19.6 µM (inactive) and the GI50 (CCRF-CEM) was > 19.6 µM (inactive). For the same compound, the GI50 (COLO 205) was > 19.6 µM (inactive), the GI50 (DLD-1) was > 19.6 µM (inactive) and the GI50 (DMS-114) was > 19.6 µM (inactive). For the same compound, the GI50 (DMS-273) was > 19.6 µM (inactive), the GI50 (EKVX) was > 19.6 µM (inactive) and the GI50 (HCC 2998) was > 19.6 µM (inactive). The GI50 (HCT-116) was > 19.6 µM (inactive), the GI50 (HL-60) was > 19.6 µM (inactive) and the GI50 (HOP-18) was > 19.6 µM (inactive). For the same compound, the GI50 (HOP-62) was > 19.6 µM (inactive), the GI50 (HOP-92) was > 19.6 µM (inactive) and the GI50 (HT-29) was > 19.6 µM (inactive). For the same compound, the GI50 (IGROV-1) was > 19.6 µM (inactive), the GI50 (K562) was > 19.6 µM (inactive) and the GI50 (KM-20L2) was > 19.6 µM (inactive). For the same compound, the GI50 (KM12) was > 19.6 µM (inactive), the GI50 (LOX IMVI) was > 19.6 µM (inactive) and the GI50 (LXFL 529) was > 19.6 µM (inactive). The GI50 (M14) was > 19.6 µM (inactive), the GI50 (M19-MEL) was > 19.6 µM (inactive) and the GI50 (MOLT-4) was > 19.6 µM (inactive). The GI50 (Malme-3M) was > 19.6 µM (inactive), the GI50 (NCI-H226) was > 19.6 µM (inactive) and the GI50 (NCI-H23) was > 19.6 µM (inactive). The GI50 (NCI-H460) was > 19.6 µM (inactive), the GI50 (NCI-H522) was > 19.6 µM (inactive) and the GI50 (OVCAR-3) was > 19.6 µM (inactive). For the same compound, the GI50 (OVCAR-4) was > 19.6 µM (inactive), the GI50 (OVCAR-5) was > 19.6 µM (inactive) and the GI50 (OVCAR-8) was > 19.6 µM (inactive). For the same compound, the GI50 (RPMI-8226) was > 19.6 µM (inactive), the GI50 (RXF 393) was > 19.6 µM (inactive) and the GI50 (SF-268) was > 19.6 µM (inactive). For the same compound, the GI50 (SF-295) was > 19.6 µM (inactive), the GI50 (SF-539) was > 19.6 µM (inactive) and the GI50 (SK-MEL-28) was > 19.6 µM (inactive). For the same compound, the GI50 (SK-MEL-2) was > 19.6 µM (inactive), the GI50 (SK-MEL-5) was > 19.6 µM (inactive) and the GI50 (SK-OV-3) was > 19.6 µM (inactive). For the same compound, the GI50 (SN12C) was > 19.6 µM (inactive), the GI50 (SNB-19) was > 19.6 µM (inactive) and the GI50 (SNB-75) was > 19.6 µM (inactive). The GI50 (SR) was > 19.6 µM (inactive), the GI50 (SW-620) was > 19.6 µM (inactive) and the GI50 (TK-10) was > 19.6 µM (inactive). For the same compound, the GI50 (U-251) was > 19.6 µM (inactive), the GI50 (UACC-257) was > 19.6 µM (inactive) and the GI50 (UACC-62) was > 19.6 µM (inactive). For the same compound, the GI50 (UO-31) was > 19.6 µM (inactive).

For `CC1=C(C(=O)CC(=O)C(=O)Nc2ccccc2C)Sc2ccccc2N1`, the GI50 (786-0) was > 45.5 µM (inactive), the GI50 (A498) was > 100 µM (inactive) and the GI50 (A549) was > 69.3 µM (inactive). The GI50 (ACHN) was > 100 µM (inactive), the GI50 (CAKI-1) was > 100 µM (inactive) and the GI50 (CCRF-CEM) was > 57.1 µM (inactive). The GI50 (COLO 205) was > 42.7 µM (inactive), the GI50 (DLD-1) was > 45.8 µM (inactive) and the GI50 (DMS-273) was > 100 µM (inactive). For the same compound, the GI50 (EKVX) was > 100 µM (inactive), the GI50 (HCC 2998) was > 74.3 µM (inactive) and the GI50 (HCT-116) was > 40.6 µM (inactive). For the same compound, the GI50 (HCT-15) was greater than 100 µM, the GI50 (HL-60) was > 60.5 µM (inactive) and the GI50 (HOP-18) was > 100 µM (inactive). The GI50 (HOP-62) was > 100 µM (inactive), the GI50 (HOP-92) was > 67.9 µM (inactive) and the GI50 (HT-29) was > 100 µM (inactive). The GI50 (IGROV-1) was > 100 µM (inactive), the GI50 (K562) was > 56.9 µM (inactive) and the GI50 (KM-20L2) was > 81.3 µM (inactive). The GI50 (KM12) was > 100 µM (inactive), the GI50 (LOX IMVI) was > 42.4 µM (inactive) and the GI50 (M14) was > 100 µM (inactive). The GI50 (M19-MEL) was > 100 µM (inactive), the GI50 (MOLT-4) was > 100 µM (inactive) and the GI50 (Malme-3M) was > 100 µM (inactive). The GI50 (NCI-H226) was > 100 µM (inactive), the GI50 (NCI-H23) was > 100 µM (inactive) and the GI50 (NCI-H460) was > 40.4 µM (inactive). For the same compound, the GI50 (NCI-H522) was > 55 µM (inactive), the GI50 (OVCAR-3) was > 100 µM (inactive) and the GI50 (OVCAR-4) was > 100 µM (inactive). For the same compound, the GI50 (OVCAR-5) was > 100 µM (inactive), the GI50 (OVCAR-8) was > 100 µM (inactive) and the GI50 (RPMI-8226) was > 45 µM (inactive). The GI50 (RXF 393) was > 57.4 µM (inactive), the GI50 (SF-268) was > 67 µM (inactive) and the GI50 (SF-295) was > 100 µM (inactive). For the same compound, the GI50 (SF-539) was > 93.3 µM (inactive), the GI50 (SK-MEL-28) was > 100 µM (inactive) and the GI50 (SK-MEL-2) was > 100 µM (inactive). For the same compound, the GI50 (SK-MEL-5) was > 100 µM (inactive), the GI50 (SK-OV-3) was > 100 µM (inactive) and the GI50 (SN12C) was > 100 µM (inactive). For the same compound, the GI50 (SNB-19) was > 100 µM (inactive), the GI50 (SNB-75) was > 53.8 µM (inactive) and the GI50 (SNB-78) was > 100 µM (inactive). For the same compound, the GI50 (SR) was > 100 µM (inactive), the GI50 (SW-620) was > 39.3 µM (inactive) and the GI50 (TK-10) was > 100 µM (inactive). For the same compound, the GI50 (U-251) was > 61.2 µM (inactive), the GI50 (UACC-257) was > 100 µM (inactive) and the GI50 (UACC-62) was > 100 µM (inactive). For the same compound, the GI50 (UO-31) was > 100 µM (inactive).

From ChEMBL document CHEMBL1201862, “PubChem BioAssay data set” (2004)
